Measured values taken from patent US20050203119A1, “Dihydropyridine compounds for treating or preventing metabolic disorders” (priority 2003, published 2005).

Key:
[1] = system: male KK-Ay mice (KK-Ay/Ta Jcl); test: Seven day baseline glucose (7DBG) study in fed KK-Ay mice (Example 123, FIG. 7); assay type: in vivo, mouse; details: oral once daily 7 days
Experimental: To determine the effect of a test compound on blood glucose levels in fed diabetic mice, seven day baseline glucose (7DBG) studies were conducted. Six to eight week old, male db/db mice (C57BLKS/J-m+/+Lepr^db/Iar), homozygous for a mutation in the gene encoding the leptin receptor, were purchased from the Institute for Animal Reproduction (Kasumigaura, Japan). Six to eight week old male KK-A^y mice (KK-A^y/Ta Jcl), a polygenic diabetes model, were purchased from Cler Japan (Tokyo, Japan). Animals were housed four to a cage in micro-isolators on a 12 hr/12 hr light/dark cycle, acclimated for at least one week prior to use and fed normal laboratory chow ad libitum. Studies were conducted with animals between nine and fourteen weeks of age. […]
To perform a 7DBG study, the starting glucose levels of db/db or KK-Ay mice in the fed state were determined on day 0, 24 hrs prior to the first drug dose on day 1. Animals were retro-orbitally bled and serum glucose levels measured by the mutarotase-glucose oxidase enzymatic method using a Glucose CII-Test Wako kit (Wako Pure Chemicals Industries, Ltd., Osaka, Japan). […] Serum glucose levels were determined 3 hrs after dosing the first compound on days 3 and 7.
The serum glucose levels on days 3 or 7 as a percent of the serum glucose levels on day 0 for individual animals in each group (8 mice/group), were calculated using Formula 3. […]

[2] = system: Male ZDF rats (ZDF/GmiCrl-fa/fa); test: Oral glucose tolerance test in fasted ZDF rats after 8 days of dosing (Example 124, FIG. 10); assay type: in vivo, rat; details: OGTT
Experimental: Male ZDF rats (ZDF/GmiCrl-fa/fa), homozygous for a mutation in the gene encoding the leptin receptor, were purchased from Charles River Laboratories (Wilmington, Mass., USA). Animals were individually housed in clear polycarbonate cages (contact bedding) on a 12 hr/12 hr light/dark cycle, acclimated for at least one week prior to use and fed normal laboratory chow (Purina No. 5008) ad libitum. Studies were conducted with animals starting between eleven and twelve weeks of age. Animals were used for a single study before being replaced. […] As noted above, animals were dosed on day 8 on the same schedule as was used for days 1 through 7 of the 7DBG study. […] Serum glucose levels were determined using a laboratory analyzer. […] This may be due to the dose of metformin (250 mg/kg) that was used, which may be too high to observe any synergy between the two compounds. […] The indicated time points are relative to the oral glucose dose.

[3] = system: Male ZDF rats (ZDF/GmiCrl-fa/fa); test: Seven day baseline glucose study in fed ZDF rats (Example 124, FIG. 9); assay type: in vivo, rat; details: oral once daily 7 days
Experimental: To determine the effect of a test compound on blood glucose levels in fed and fasted diabetic rats, a 7DBG study was conducted, followed immediately by an 8th day of dosing and an OGTT study on the same animals. Male ZDF rats (ZDF/GmiCrl-fa/fa), homozygous for a mutation in the gene encoding the leptin receptor, were purchased from Charles River Laboratories (Wilmington, Mass., USA). Animals were individually housed in clear polycarbonate cages (contact bedding) on a 12 hr/12 hr light/dark cycle, acclimated for at least one week prior to use and fed normal laboratory chow (Purina No. 5008) ad libitum. Studies were conducted with animals starting between eleven and twelve weeks of age. Animals were used for a single study before being replaced.
To perform a 7DBG plus OGTT study, animals were bled by tail vein lancing on day 0, 24 hrs prior to the first drug dose on day 1, and blood glucose levels were measured by a hand-held glucometer. Animals were randomized into dosing groups of 6 animals, with each group having a similar starting average glucose level. […] Blood glucose levels were determined daily using a hand-held glucometer 3 hrs after the first dose on days 1 through 7.
The serum glucose levels on days 3 or 7 as a percent of the serum glucose levels on day 0 for individual animals in each group (6 rats/group), were calculated using Formula 3. […]

[4] = system: Lepr db mice; test: Oral glucose tolerance test in Lepr db mice (Example 120); assay type: in vivo, mouse
Experimental: Compound 39 (25, 50 and 100 mg/kg) and vehicle (0.5% Methylcellulose) were administered orally at one hour before glucose loading (2 g/kg, PO) to Lepr db mice fasted for about 4 hours. Blood samples were collected sequentially from the retro-orbital sinus at pre-treatment one day before and about 1 and about 2 hours after glucose loading. Serum glucose values were obtained at about 1 and about 2 hours after glucose loading, percentage reductions were expressed as percentage of corresponding vehicle control values and unpaired Student's t test was then applied for comparison between test substance and vehicle group. Differences are considered significant at P<0.05 level.

CCOC(=O)C1=C(COCCN)NC2=C(C(=O)CC(C)(C)C2)C1c1cccnc1 (stereo not drawn) [Compound 39, 2-(2-Amino-ethoxymethyl)-7,7-dimethyl-5-oxo-4-pyridin-3-yl-1,4,5,6,7,8-hexahydro-quinoline-3-carboxylic acid ethyl ester]
glucose lowering activities of rosiglitazone and metformin in combination with Compound 39 (FIG. 7) [1]: enhanced | serum glucose (FIG. 7) ([1]; Compound 39 alone): decreased serum glucose | glucose intolerance relative to vehicle-treated animals (FIG. 10) ([2]; after daily oral dosing for 8 days): decreased | effect of metformin on glucose tolerance in combination with Compound 39 (FIG. 10) ([2]; metformin 250 mg/kg): did not appear to enhance | glucose lowering activities of metformin in combination with Compound 39 (FIG. 9) [3]: enhanced | serum glucose (FIG. 9) ([3]; Compound 39 alone): decreased serum glucose | Serum Glucose ([4]; 0 hr (pre-treatment one day before), 25 mg/kg group): 375.9 ± 16.3 mg/dL | Serum Glucose ([4]; 0 hr (pre-treatment one day before), 50 mg/kg group): 371.1 ± 15.2 mg/dL | Serum Glucose ([4]; 0 hr (pre-treatment one day before), 100 mg/kg group): 340.7 ± 14.2 mg/dL | Serum Glucose ([4]; 1 hr after glucose loading (2 g/kg PO), 25 mg/kg orally): 379.3 ± 18.5 mg/dL | Serum Glucose ([4]; 1 hr after glucose loading (2 g/kg PO), 50 mg/kg orally): 415.6 ± 11.0 mg/dL | Serum Glucose ([4]; 1 hr after glucose loading (2 g/kg PO), 100 mg/kg orally): 366.2 ± 17.3 mg/dL | serum glucose % Reduction relative to vehicle ([4]; 1 hr after glucose loading, 25 mg/kg orally): (19.3) % | serum glucose % Reduction relative to vehicle ([4]; 1 hr after glucose loading, 50 mg/kg orally): (11.6) % | serum glucose % Reduction relative to vehicle ([4]; 1 hr after glucose loading, 100 mg/kg orally): (22.1) % | Serum Glucose ([4]; 2 hr after glucose loading (2 g/kg PO), 25 mg/kg orally): 331.1 ± 14.5 mg/dL | Serum Glucose ([4]; 2 hr after glucose loading (2 g/kg PO), 50 mg/kg orally): 346 ± 16.8 mg/dL | Serum Glucose ([4]; 2 hr after glucose loading (2 g/kg PO), 100 mg/kg orally): 301.3 ± 28.4 mg/dL | serum glucose % Reduction relative to vehicle ([4]; 2 hr after glucose loading, 25 mg/kg orally): (11.8) % | serum glucose % Reduction relative to vehicle ([4]; 2 hr after glucose loading, 50 mg/kg orally): (7.8) % | serum glucose % Reduction relative to vehicle ([4]; 2 hr after glucose loading, 100 mg/kg orally): (19.7) %
